Test results from ChEMBL document CHEMBL1201862, “PubChem BioAssay data set” (2004).
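The compound was tested at five concentrations on cells cultured in 96-well plates, with a 48-hour exposure period. The concentration for 50% growth inhibition is given as GI50.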 Activity calls are given as the source filed them. No stated cut-off is given here; in the data, active = GI50 up to about 1.1 µM and inactive = higher.

Columns and labels:
Test in all cases: NCI-60 cell line screen, 48 h
SK-MEL-28 = system: SK-MEL-28
UO-31 = system: UO-31
SN12C = system: SN12C
HT-29 = system: HT-29
A549 = system: A549
SF-268 = system: SF-268
ACHN = system: ACHN
SF-539 = system: SF-539
COLO 205 = system: COLO 205
EKVX = system: EKVX
OVCAR-4 = system: OVCAR-4
A498 = system: A498
K562 = system: K562
UACC-257 = system: UACC-257
NCI-H460 = system: NCI-H460
NCI-H522 = system: NCI-H522
RXF 393 = system: RXF 393
RPMI-8226 = system: RPMI-8226
OVCAR-3 = system: OVCAR-3
HOP-62 = system: HOP-62

SMILES | GI50 (SK-MEL-28) | GI50 (UO-31) | GI50 (SN12C) | GI50 (HT-29) | GI50 (A549) | GI50 (SF-268) | GI50 (ACHN) | GI50 (SF-539) | GI50 (COLO 205) | GI50 (EKVX) | GI50 (OVCAR-4) | GI50 (A498) | GI50 (K562) | GI50 (UACC-257) | GI50 (NCI-H460) | GI50 (NCI-H522) | GI50 (RXF 393) | GI50 (RPMI-8226) | GI50 (OVCAR-3) | GI50 (HOP-62)
CC(C)(C)c1ccc(-n2c3nc(=O)n(-c4ccccc4CO)c(=O)c-3cc3ccccc32)cc1 | 38.7 µM (inactive) | 42.1 µM (inactive) | 57.7 µM (inactive) | 26.6 µM (inactive) | 76.2 µM (inactive) | 40.6 µM (inactive) | 69.7 µM (inactive) | 30.5 µM (inactive) | 46.5 µM (inactive) | 48.9 µM (inactive) | 49 µM (inactive) | > 100 µM (inactive) | 45.7 µM (inactive) | 30.5 µM (inactive) | 38.9 µM (inactive) | 32.7 µM (inactive) | 22.8 µM (inactive) |  |  | 
N#Cc1c(Nc2ccc(F)cc2)[n+]([O-])c2ccc(Cl)cc2[n+]1[O-] | 16.1 µM (inactive) | 4.58 µM (inactive) | 2.55 µM (inactive) | 3.47 µM (inactive) | 0.568 µM (active) | 2.53 µM (inactive) |  | 2.56 µM (inactive) | 1.95 µM (inactive) |  | 2.03 µM (inactive) | 2.88 µM (inactive) | 2.47 µM (inactive) | 2.91 µM (inactive) | 2.38 µM (inactive) |  | 4.36 µM (inactive) | 2.72 µM (inactive) | 2.62 µM (inactive) | 4.52 µM (inactive)
CC1=C2c3c(C)ccc4ccc(C)c(c34)C2(O)C(C)C1=O (centres undefined) | 84.3 µM (inactive) | 21.3 µM (inactive) | > 100 µM (inactive) | > 100 µM (inactive) | 40.3 µM (inactive) | 63.4 µM (inactive) | 73.6 µM (inactive) | > 100 µM (inactive) | 28.8 µM (inactive) | 70.8 µM (inactive) | 65 µM (inactive) | > 100 µM (inactive) | 49.5 µM (inactive) | 53.8 µM (inactive) | 60.1 µM (inactive) | 47.2 µM (inactive) |  | 33 µM (inactive) | 37.7 µM (inactive) | 79.1 µM (inactive)
COC1CC(=O)C2C(=O)N(c3ccccc3)C(=O)C23C(C(=O)c2ccccc2)=C(C)NC13O (centres undefined) | 11 µM (inactive) | 11.4 µM (inactive) | 16.6 µM (inactive) | 16.9 µM (inactive) | 34.4 µM (inactive) | 3.84 µM (inactive) | 12.9 µM (inactive) | 5.32 µM (inactive) | 12.3 µM (inactive) | 17.4 µM (inactive) | 4.92 µM (inactive) | 17.2 µM (inactive) | < 0.01 µM (active) | 22.9 µM (inactive) | 21.7 µM (inactive) | 1.91 µM (inactive) |  | 5.08 µM (inactive) | 2.12 µM (inactive) | 20.2 µM (inactive)
O=S(=O)(N/N=C/c1c(Cl)cccc1Cl)c1ccccc1 | > 100 µM (inactive) | > 100 µM (inactive) | > 100 µM (inactive) | > 100 µM (inactive) | > 100 µM (inactive) | > 100 µM (inactive) |  | > 100 µM (inactive) | > 100 µM (inactive) | > 100 µM (inactive) | > 100 µM (inactive) | > 100 µM (inactive) | > 100 µM (inactive) | > 100 µM (inactive) | > 100 µM (inactive) |  | 55.5 µM (inactive) | > 100 µM (inactive) | > 100 µM (inactive) | > 100 µM (inactive)
CCOC(=O)c1ccc(C(=O)C(C(C)=O)C(=O)OC(C)(C)C)[nH]1 (centres undefined) | > 100 µM (inactive) | > 100 µM (inactive) | > 100 µM (inactive) | > 100 µM (inactive) | > 100 µM (inactive) | > 100 µM (inactive) | > 100 µM (inactive) |  | > 100 µM (inactive) | > 100 µM (inactive) | > 100 µM (inactive) | > 100 µM (inactive) | > 100 µM (inactive) |  | > 100 µM (inactive) | > 100 µM (inactive) | > 100 µM (inactive) | > 100 µM (inactive) | > 100 µM (inactive) | > 100 µM (inactive)
O=C1/C(=C/c2ccccc2)CCC/C1=C\c1ccccc1 [2,6-DIBENZYLIDENECYCLOHEXANONE] | 16.6 µM (inactive) | 18.2 µM (inactive) | 16.1 µM (inactive) | 5.87 µM (inactive) | 19.6 µM (inactive) | 11 µM (inactive) | 15.7 µM (inactive) | 16.6 µM (inactive) | 17.9 µM (inactive) | 18.3 µM (inactive) | 14.9 µM (inactive) | 16.1 µM (inactive) | 3.58 µM (inactive) | 17 µM (inactive) | 14.9 µM (inactive) |  | 17.8 µM (inactive) | 1.6 µM (inactive) | 10.4 µM (inactive) | 21.7 µM (inactive)
N#CCC(=O)N/N=C1\C(=O)N(c2ccc(Cl)cc2)C(=O)C(=O)C1c1nc2ccccc2o1 (centres undefined) | > 100 µM (inactive) | > 100 µM (inactive) | > 100 µM (inactive) | > 100 µM (inactive) | > 100 µM (inactive) | > 100 µM (inactive) | > 100 µM (inactive) | > 100 µM (inactive) | > 100 µM (inactive) | > 100 µM (inactive) | > 100 µM (inactive) | > 100 µM (inactive) |  | > 100 µM (inactive) | > 100 µM (inactive) | > 100 µM (inactive) | > 100 µM (inactive) |  | > 100 µM (inactive) | > 100 µM (inactive)
O=C(CC(=O)Nc1ccc(C(=O)O)cc1)Nc1ccc(C(=O)O)cc1 | > 100 µM (inactive) | > 100 µM (inactive) | > 100 µM (inactive) | > 100 µM (inactive) | > 100 µM (inactive) | 34.6 µM (inactive) | > 100 µM (inactive) | > 100 µM (inactive) | > 100 µM (inactive) | > 100 µM (inactive) | > 100 µM (inactive) | > 100 µM (inactive) | > 100 µM (inactive) | > 100 µM (inactive) | > 100 µM (inactive) | > 100 µM (inactive) |  | > 100 µM (inactive) | > 100 µM (inactive) | 
CCOC(=O)C1C(=O)CN2CCc3c([nH]c4ccccc34)C12C(=O)OCC (centres undefined) | > 100 µM (inactive) | > 100 µM (inactive) | > 100 µM (inactive) | > 100 µM (inactive) | > 100 µM (inactive) | > 100 µM (inactive) | > 100 µM (inactive) | > 100 µM (inactive) | > 100 µM (inactive) | > 100 µM (inactive) | > 100 µM (inactive) | > 100 µM (inactive) | > 100 µM (inactive) | > 100 µM (inactive) | > 100 µM (inactive) | > 100 µM (inactive) | > 100 µM (inactive) |  | > 100 µM (inactive) | > 100 µM (inactive)
COC(=O)C1CCC(=O)N1C(c1ccc2c(c1)OCO2)c1cc(OC)c(OC)c(OC)c1 (centres undefined) | > 100 µM (inactive) | > 100 µM (inactive) | > 100 µM (inactive) | > 100 µM (inactive) | > 100 µM (inactive) | > 100 µM (inactive) | > 100 µM (inactive) | > 100 µM (inactive) | > 100 µM (inactive) | > 100 µM (inactive) | > 100 µM (inactive) | > 100 µM (inactive) | > 100 µM (inactive) | > 100 µM (inactive) | > 100 µM (inactive) | 6.35 µM (inactive) |  | > 100 µM (inactive) | > 100 µM (inactive) | > 100 µM (inactive)
CN(COC(=O)C(C)(C)C)c1nc(N(C)COC(=O)C(C)(C)C)nc(N(C)COC(=O)C(C)(C)C)n1 | > 100 µM (inactive) | > 100 µM (inactive) | > 100 µM (inactive) | 34 µM (inactive) | < 0.01 µM (active) | 34.8 µM (inactive) | 32.3 µM (inactive) | > 100 µM (inactive) | 16 µM (inactive) | > 100 µM (inactive) | 82.4 µM (inactive) | > 100 µM (inactive) | 24 µM (inactive) | 98.2 µM (inactive) | 60 µM (inactive) | 77.1 µM (inactive) | 21 µM (inactive) |  | > 100 µM (inactive) | > 100 µM (inactive)
C/C=C/C(C#N)O[Si](C)(C)C (centres undefined) | > 100 µM (inactive) | > 100 µM (inactive) | > 100 µM (inactive) | > 100 µM (inactive) | > 100 µM (inactive) | > 100 µM (inactive) | > 100 µM (inactive) | > 100 µM (inactive) | > 100 µM (inactive) | > 100 µM (inactive) | > 100 µM (inactive) | > 100 µM (inactive) |  | > 100 µM (inactive) | > 100 µM (inactive) | > 100 µM (inactive) | > 100 µM (inactive) |  | > 100 µM (inactive) | > 100 µM (inactive)
COc1cccc(-c2[nH]c3cc4c(cc3c(=O)c2C(=O)O)OCO4)c1 | 37 µM (inactive) | 49.2 µM (inactive) | 40.6 µM (inactive) | 34.2 µM (inactive) | 44.7 µM (inactive) |  | 86.7 µM (inactive) | 28.8 µM (inactive) | 26.5 µM (inactive) | 79.1 µM (inactive) | 28.6 µM (inactive) | 34.4 µM (inactive) | 34.5 µM (inactive) | > 100 µM (inactive) | 43.7 µM (inactive) |  | 39.2 µM (inactive) | 41.2 µM (inactive) | 44.4 µM (inactive) | 62.8 µM (inactive)
O=C1c2ccccc2C(=O)c2cc(/N=N/c3c(O)ccc4ccccc34)ccc21 | > 100 µM (inactive) | > 100 µM (inactive) | > 100 µM (inactive) | > 100 µM (inactive) | > 100 µM (inactive) | 30.1 µM (inactive) | > 100 µM (inactive) |  | > 100 µM (inactive) | 89.7 µM (inactive) | > 100 µM (inactive) | > 100 µM (inactive) | > 100 µM (inactive) | > 100 µM (inactive) |  | > 100 µM (inactive) | > 100 µM (inactive) | > 100 µM (inactive) | > 100 µM (inactive) | 30.2 µM (inactive)
